Measured values from patent US20230140983A1, “PYRIDAZINE DERIVATIVES FOR MODULATING NUCLEIC ACID SPLICING” (REMIX THERAPEUTICS INC., priority 2020, published 2023).
Counter-ions that a name gives are not always drawn. Like-named read-outs stand apart in the source and are kept apart here.

System: HTT
Experiment: Splicing assay (RT-qPCR on cell lysates) monitoring HTT splice variants: AJ and CJ mRNA
Format: cell-based
Conditions: concentration having 50% response
Method: Example 69: Exemplary Splicing Assay for Monitoring Expression Levels of Splice Variants
To set up 10 uL RT-qPCR reactions, cell lysates were transferred to 384-well qPCR plates containing the master mix according to the table below. The plates were sealed, gently vortexed, and spun down before the run. The volumes were adjusted accordingly in some instances where the reaction was carried in 20 uL. The table below summarizes the components of the RT-qPCR reactions:
The RT-qPCR reaction was performed using a QuantStudio (ThermoFisher) under the following fast cycling conditions. All samples and standards were analyzed at least in duplicate. In some instances, bulk room temperature (RT) step of 5-10 minutes was completed for all plates before proceeding with qPCR. The table below summarizes the PCR cycle:
The data analysis was performed by first determining the ΔCt vs the housekeeper gene. This ΔCt was then normalized against the DMSO control (ΔΔCt) and converted to RQ (relative quantification) using the 2^(−ΔΔCt) equation. The RQ were then converted to a percentage response by arbitrarily setting an assay window of 3.5 ΔCt for HTT-CJ and an assay window of 9 ΔCt for HTT-AJ. […] The percentage response was then fitted to the 4 parametric logistic equation to evaluate the concentration dependence of compound treatment. The increase in AJ mRNA is reported as AC50 (compound concentration having 50% response in AJ increase) while the decrease in CJ mRNA levels is reported as IC50 (compound concentration having 50% response in CJ decrease).

[1] = Table 7, decrease in CJ mRNA, read-out: HTT CJ AC50
[2] = Table 7, increase in AJ mRNA, read-out: HTT AJ AC50
[3] = Table 8, decrease in CJ mRNA, read-out: HTT CJ AC50
[4] = Table 8, increase in AJ mRNA, read-out: HTT AJ AC50

In the case of `C[C@H]1C[C@@H](N(C)c2ccc(-c3ccc(-c4cn[nH]c4)c4cc[nH]c34)nn2)CCN1` [Compound 108, N-methyl-N-[(2S,4S)-2-methylpiperidin-4-yl]-6-[4-(1H-pyrazol-4-yl)-1H-indol-7-yl]pyridazin-3-amine], the AC50 [1] is reported as > 5 µM and the AC50 [2] is reported as > 5 µM.

In the case of `C[C@@H]1C[C@H](N(C)c2ccc(-c3ccc(-c4cn[nH]c4)c4nn[nH]c34)nn2)CCN1` [Compound 115], the AC50 [2] is reported as > 5 µM.

For `C[C@H]1C[C@H](N(C)c2ccc(-c3ccc(-c4cn[nH]c4)c4cc[nH]c34)nn2)CCN1` [Compound 157], the AC50 [2] was > 5 µM.

`[2H]C([2H])([2H])N(c1ccc(-c2ccc(-c3cn[nH]c3)c3ncsc23)nn1)C1CC(C)(C)NC(C)(C)C1` [Compound 231, N-(2H3)methyl-6-[4-(1H-pyrazol-4-yl)-1,3-benzothiazol-7-yl]-N-(2,2,6,6-tetramethylpiperidin-4-yl)pyridazin-3-amine] was tested, and the AC50 [3] was 0.1 to 1 µM and the AC50 [4] was 0.1 to 1 µM.

With `C[C@H]1C[C@@H](N(C)c2ccc(-c3ccc(-n4cccn4)c4cn[nH]c34)nn2)CCN1` [Compound 159] the AC50 [1] was > 5 µM and the AC50 [2] was > 5 µM.

`CN(c1ccc(-c2ccc(-n3cccn3)c3nn[nH]c23)nn1)[C@@H]1C[C@H]2CC[C@@H](C1)N2` [Compound 119, (1R,3S,5S)—N-methyl-N-[6-[7-(pyrazol-1-yl)-3H-1,2,3-benzotriazol-4-yl]pyridazin-3-yl]-8-azabicyclo[3.2.1]octan-3-amine] was tested, and the AC50 [1] was 0.5 to 5 µM and the AC50 [2] was > 5 µM.

With `CN1C[C@@H]2[C@H](C1)[C@H]2N(C)c1ccc(-c2ccc(-c3cn[nH]c3)c3ncsc23)nn1` [Compound 235, (exo)-N,3-dimethyl-N-{6-[4-(1H-pyrazol-4-yl)-1,3-benzothiazol-7-yl]pyridazin-3-yl}-3-azabicyclo[3.1.0]hexan-6-amine hydrochloride] the AC50 [3] was > 10 µM and the AC50 [4] was > 10 µM.

`C[C@@H]1C[C@H](N(C)c2ccc(-c3ccc(-c4cn[nH]c4)c4c3NC(=O)C4)nn2)CCN1` [Compound 121, 7-(6-[methyl[(2R,4R)-2-methylpiperidin-4-yl]amino]pyridazin-3-yl)-4-(1H-pyrazol-4-yl)-1,3-dihydroindol-2-one] was tested, and the AC50 [2] was > 5 µM.

In the case of `CN(c1ccc(-c2ccc(-n3cccn3)c3cn[nH]c23)nn1)C1CCNCC1` [Compound 264], the AC50 [3] is reported as > 10 µM and the AC50 [4] is reported as > 10 µM.

With `CN(c1ccc(-c2ccc(-c3cn[nH]c3)c3cn[nH]c23)nn1)C1CCNCC1` [Compound 273] the AC50 [3] was > 10 µM and the AC50 [4] was > 10 µM.

In the case of `c1nc2c(-c3cn[nH]c3)ccc(-c3ccc(N4CCC5(CCN5)C4)nn3)c2s1` (stereo not drawn) [Compound 265, 7-(6-{1,6-diazaspiro[3.4]octan-6-yl}pyridazin-3-yl)-4-(1H-pyrazol-4-yl)-1,3-benzothiazole], the AC50 [3] is reported as > 10 µM and the AC50 [4] is reported as > 10 µM.

With `c1n[nH]cc1-c1ccc(-c2ccc(N3CCC4(CCCNC4)C3)nn2)c2[nH]ncc12` (stereo not drawn) [Compound 252] the AC50 [3] was > 10 µM and the AC50 [4] was > 10 µM.

`c1n[nH]cc1-c1ccc(-c2ccc(N3C[C@H]4CNC[C@H]4C3)nn2)c2[nH]ncc12` [Compound 254] was tested, and the AC50 [3] was > 10 µM and the AC50 [4] was > 10 µM.

In the case of `CN(c1ccc(-c2ccc(-c3cn[nH]c3)c3ccsc23)nn1)C1CC(C)(C)NC(C)(C)C1` [Compound 131, N-methyl-6-[4-(1H-pyrazol-4-yl)-1-benzothiophen-7-yl]-N-(2,2,6,6-tetramethylpiperidin-4-yl)pyridazin-3-amine], the AC50 [1] is reported as > 5 µM and the AC50 [2] is reported as > 5 µM.

`CN(c1ccc(-c2ccc(-c3cn[nH]c3)c3cn[nH]c23)nn1)C1CC(C)(C)NC(C)(C)C1` [Compound 137, N-methyl-6-[4-(1H-pyrazol-4-yl)-1H-indazol-7-yl]-N-(2,2,6,6-tetramethylpiperidin-4-yl)pyridazin-3-amine] gave an AC50 [1] of 0.5 to 5 µM and an AC50 [2] of 0.5 to 5 µM.
